# Data: patent publication US20100035926A1, “PYRAZOLE DERIVATIVES AS NON-STEROIDAL GLUCOCORTICOID RECEPTOR LIGANDS” (priority 2006, published 2010)
# Like-named read-outs stand apart in the source and are kept apart here.
# Columns and labels:
# [1] = molecular target: T1, GR (Homo sapiens, UniProt P04150); test: GR Functional Assay - NFκB Assay (A549 SPAP cells, TNFα stimulated); format: cell-based; conditions: for Emax: agonists, read-out: average maximum asymptote in the NFkB assay
# T1 construct: endogenous in cells; host or cells: A549 (human lung carcinoma, ECACC No. 86012804), stably transfected with reporter plasmids only
# T1 sequence (P04150 1-777): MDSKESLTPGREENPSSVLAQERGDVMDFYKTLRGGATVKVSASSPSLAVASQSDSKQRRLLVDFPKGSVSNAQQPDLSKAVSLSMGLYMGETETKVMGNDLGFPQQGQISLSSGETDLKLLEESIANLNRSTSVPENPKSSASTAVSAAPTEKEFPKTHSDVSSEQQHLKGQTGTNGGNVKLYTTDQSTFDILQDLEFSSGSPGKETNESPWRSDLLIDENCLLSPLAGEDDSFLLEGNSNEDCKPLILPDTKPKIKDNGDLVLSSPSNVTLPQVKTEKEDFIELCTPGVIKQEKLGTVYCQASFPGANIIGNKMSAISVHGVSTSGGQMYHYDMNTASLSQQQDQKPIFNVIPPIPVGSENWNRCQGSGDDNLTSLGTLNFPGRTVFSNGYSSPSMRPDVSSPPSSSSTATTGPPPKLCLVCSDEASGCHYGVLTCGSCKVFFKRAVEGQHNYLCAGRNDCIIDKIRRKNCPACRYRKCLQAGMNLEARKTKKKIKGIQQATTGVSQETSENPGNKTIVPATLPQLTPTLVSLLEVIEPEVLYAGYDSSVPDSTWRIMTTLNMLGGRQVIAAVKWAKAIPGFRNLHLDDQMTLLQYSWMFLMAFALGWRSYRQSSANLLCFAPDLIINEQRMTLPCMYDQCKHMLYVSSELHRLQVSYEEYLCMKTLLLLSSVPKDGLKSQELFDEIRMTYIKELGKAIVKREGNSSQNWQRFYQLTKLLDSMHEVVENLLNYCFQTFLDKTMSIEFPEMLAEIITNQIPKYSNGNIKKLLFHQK
# Protocol: Stimulation of the cell line with TNFα results in intracellular signal transduction and ultimately translocation of NFκB into the nucleus. This activates the inserted DNA sequence resulting in transcription of the integrated SPAP gene, which is quantified using a calorimetric assay. […] The stably transfected cell line was grown as a monolayer in DMEM supplemented with FCS-HI (10%), Non-essential amino acids (1%), L-Glutamine (2 mM), Pen/Strep (1%) and Geneticin (50 mg/ml).
# A 70% confluent T225 flask of A549 SPAP cells was harvested by centrifugation for 5 mins at 200 g, resuspended in assay buffer (DMEM supplemented with 10% FCS 2×HI, 2 mM L-Glutamine, 1% Pen/Strep and Non essential amino acids) and diluted to 0.16×10^6/ml. 60 μl of cell solution was dispensed to each well of clear Nunc 384-well plates, containing compound at the required concentration. […] Plates were equilibrated to room temperature for 1 hr prior to the addition of 25 μl of pNPP buffer (1M Diethanolamine pH 9.8, 0.5 mM MgCl2, 0.28M NaCl, 2 mg/ml pNPP) to each well of assay plates.
# [2] = molecular target: T1, GR; test: GR Agonist Assay - MMTV Assay (A549 MMTV cells, renilla luciferase reporter); format: cell-based; conditions: 6 h, agonists, read-out: average maximum asymptote in the MMTV agonist assay
# Protocol: Stimulation of the cell line with GR agonists results in intracellular signal transduction and ultimately translocation of GR into the nucleus. This activates the inserted DNA sequence resulting in transcription of the integrated luciferase gene, which is quantified using a light emission. The stably transfected cell line was grown as a monolayer in DMEM supplemented with FCS-HI (10%), Non-essential amino acids (1%), L-Glutamine (2 mM), Pen/Strep (1%) and Geneticin (50 mg/ml).
# A 90% confluent T175 flask of A549 MMTV cells was harvested by centrifugation for 5 min at 200 g, resuspended in assay buffer (DMEM supplemented with 10% FCS 2×HI, 2 mM Glutamax, Non essential amino acids and 25 mM HEPES) and diluted to 0.1×10^6/ml. 70 μl of cell solution was dispensed to each well of white Nunc 384-well plates, containing compound at the required concentration. […] The plates were covered to protect the reagents from light, and then incubated at room temperature for approximately 15 mins before reading them on a Viewlux.
# [3] = molecular target: T2, glucocorticoid receptor (Homo sapiens, UniProt P04150); test: Glucocorticoid Receptor Binding Assay (fluorescence polarisation, displacement of Alexa 555 labelled dexamethasone derivative); conditions: at least once in this assay; read-out: glucocorticoid binding pIC50 (converted)
# T2 construct: a partially purified full length glucocorticoid receptor
# T2 sequence (P04150 1-777): T1 sequence (P04150 1-777)
# Protocol: Compounds were solvated and diluted in DMSO, and transferred directly into assay plates. Fluorescent dexamethasone and a partially purified full length glucocorticoid receptor were added to the plates, together with buffer components to stabilise the GR protein and incubated at room temperature for 2 hr in the dark. Binding of each compound was assessed by analysing the displacement of fluorescent ligand by measuring the decrease in fluorescence polarisation signal from the mixture.
# [4] = at least once, examples listed as agonists in NFkB and MMTV assays, read-out: potency pIC50 in the NFKB assay (converted)
# [5] = at least once in the NFkB assay, A549 SPAP cells, read-out: pIC50 in the NFkB assay (converted)
Emax ([1]; A549 SPAP cells),"IC50 [1, 4]",Emax [2],IC50 [3],"IC50 [1, 5]",SMILES
≥ 40%,< 0.316 µM,≥ 40%,< 1 µM,–,"Nc1c(C(=O)NCC(O)(CN(CCF)C(=O)c2ccccc2C(F)(F)F)C(F)(F)F)cnn1-c1ccc(F)cc1 (racemic) [Example 10 (racemic), 5-amino-1-(4-fluorophenyl)-N-{3,3,3-trifluoro-2-[((2-fluoroethyl){[2-(trifluoromethyl)phenyl]carbonyl}amino)methyl]-2-hydroxypropyl}-1H-pyrazole-4-carboxamide]"
≥ 40%,< 0.316 µM,≥ 40%,–,–,"Nc1c(C(=O)NCC(O)(CN(CCF)C(=O)c2ccccc2OC(F)F)C(F)(F)F)cnn1-c1ccc(F)cc1 (racemic) [Example 11 (racemic), 5-amino-N-(2-{[({2-[(difluoromethyl)oxy]phenyl}carbonyl) (2-fluoroethyl)amino]methyl}-3,3,3-trifluoro-2-hydroxypropyl)-1-(4-fluorophenyl)-1H-pyrazole-4-carboxamide]"
≥ 40%,< 0.316 µM,≥ 40%,< 1 µM,–,"CCN(CC(O)(CNC(=O)c1cnn(-c2ccc(F)cc2)c1N)C(F)(F)F)C(=O)c1ccccc1OC(F)F (racemic) [Example 12 (racemic), 5-amino-N-(2-{[({2-[(difluoromethyl)oxy]phenyl}carbonyl) (ethyl)amino]methyl}-3,3,3-trifluoro-2-hydroxypropyl)-1-(4-fluorophenyl)-1H-pyrazole-4-carboxamide]"
≥ 40%,< 0.316 µM,≥ 40%,< 1 µM,–,"CCN(CC(O)(CNC(=O)c1cnn(-c2ccc(F)cc2)c1N)C(F)(F)F)C(=O)c1ccccc1C(C)=O (racemic) [Example 13 (racemic), N-(2-{[[(2-acetylphenyl)car-bonyl](ethyl)amino]methyl}-3,3,3-trifluoro-2-hydroxypropyl)-5-amino-1-(4-fluorophenyl)-1H-pyrazole-4-carboxamide]"
≥ 40%,< 0.316 µM,≥ 40%,< 1 µM,< 1 µM,"CCN(CC(O)(CNC(=O)c1cnn(-c2ccc(F)cc2)c1N)C(F)(F)F)C(=O)c1cccc(Cl)c1 (racemic) [Example 17 (racemic), 5-amino-N-(2-{[[(3-chlorophenyl)car-bonyl](ethyl)amino]methyl}-3,3,3-trifluoro-2-hydroxypropyl)-1-(4-fluorophenyl)-1H-pyrazole-4-carboxamide]"
–,–,–,< 1 µM,–,"CCN(CC(O)(CNC(=O)c1cnn(-c2ccc(F)cc2)c1N)C(F)(F)F)C(=O)c1ccc(Cl)cc1 (racemic) [Example 19 (racemic), 5-amino-N-(2-{[[(4-chlorophenyl)car-bonyl](ethyl)amino]methyl}-3,3,3-trifluoro-2-hydroxypropyl)-1-(4-fluorophenyl)-1H-pyrazole-4-carboxamide]"
–,–,–,< 1 µM,< 1 µM,"CCN(CC(O)(CNC(=O)c1cnn(-c2ccc(F)cc2)c1N)C(F)(F)F)C(=O)c1ccc(F)c(F)c1 (racemic) [Example 21 (racemic), 5-amino-N-(2-{[[(3,4-difiuorophenyl)car-bonyl](ethyl)amino]methyl}-3,3,3-trifluoro-2-hydroxypropyl)-1-(4-fluorophenyl)-1H-pyrazole-4-carboxamide]"
–,–,–,< 1 µM,–,"CCN(CC(O)(CNC(=O)c1cnn(-c2ccc(F)cc2)c1N)C(F)(F)F)C(=O)c1cccc(C(C)=O)c1 (racemic) [Example 22 (racemic), N-(2-{[[(3-acetylphenyl)car-bonyl](ethyl)amino]methyl}-3,3,3-trifluoro-2-hydroxypropyl)-5-amino-1-(4-fluorophenyl)-1H-pyrazole-4-carboxamide]"
–,–,–,< 1 µM,< 1 µM,"CN(CC(O)(CNC(=O)c1cnn(-c2ccc(F)cc2)c1N)C(F)(F)F)C(=O)c1ccccc1 (racemic) [Example 25 (racemic), 5-amino-1-(4-fluorophenyl)-N-(3,3,3-trifluoro-2-hydroxy-2-{[methyl(phenylcarbonyl)amino]methyl}propyl)-1H-pyrazole-4-carboxamide]"
–,–,–,< 1 µM,–,"CN(CC(O)(CNC(=O)c1cnn(-c2ccc(F)cc2)c1N)C(F)(F)F)C(=O)c1cccc(C(F)(F)F)c1 (racemic) [Example 26 (racemic), 5-amino-1-(4-fluorophenyl)-N-{3,3,3-trifluoro-2-hydroxy-2-[(methyl{[3-(trifluoromethyl)phenyl]carbonyl}amino)methyl]propyl}-1H-pyrazole-4-carboxamide]"
–,–,–,–,< 1 µM,"CN(CC(O)(CNC(=O)c1cnn(-c2ccc(F)cc2)c1N)C(F)(F)F)C(=O)c1ncccc1F (racemic) [Example 29 (racemic), N-{2-[({[5-amino-1-(4-fluorophenyl)-1H-pyrazol-4-yl]carbonyl}amino)methyl]-3,3,3-trifluoro-2-hydroxypropyl}-3-fluoro-N-methyl-2-pyridinecarboxamide]"
–,–,–,< 1 µM,–,"CCN(CC(O)(CNC(=O)c1cnn(-c2ccccc2Cl)c1N)C(F)(F)F)C(=O)c1ccccc1 (racemic) [Example 36 (racemic), 5-amino-1-(2-chlorophenyl)-N-(2-{[ethyl(phenylcar-bonyl)amino]methyl}-3,3,3-trifluoro-2-hydroxypropyl)-1H-pyrazole-4-carboxamide]"
≥ 40%,< 0.316 µM,≥ 40%,–,–,"CN(CC(O)(CNC(=O)c1cnn(-c2ccc(F)cc2)c1N)C(F)(F)F)C(=O)c1cccc2cccnc12 (racemic) [Example 42 (racemic), N-{2-[({[5-amino-1-(4-fluorophenyl)-1H-pyrazol-4-yl]carbonyl}amino)methyl]-3,3,3-trifluoro-2-hydroxypropyl}-N-methyl-8-quinolinecarboxamide]"
≥ 40%,< 0.316 µM,≥ 40%,–,–,"Nc1c(C(=O)NCC(O)(CN(CCF)C(=O)c2ccccc2)C(F)(F)F)cnn1-c1ccc(F)cc1 (single isomer, unassigned) [Example 1 Enantiomer 2, 5-Amino-1-(4-fluorophenyl)-N-(3,3,3-trifluoro-2-{[(2-fluoroethyl)(phenylcarbonyl)amino]methyl}-2-hydroxypropyl)-1H-pyrazole-4-carboxamide]"
≥ 40%,< 0.316 µM,≥ 40%,–,< 1 µM,"CCN(CC(O)(CNC(=O)c1cnn(-c2ccc(F)cc2)c1N)C(F)(F)F)C(=O)c1ccccc1 (single isomer, unassigned) [Example 14 Enantiomer 2, 5-amino-N-(2-{[ethyl(phenylcar-bonyl)amino]methyl}-3,3,3-trifluoro-2-hydroxypropyl)-1-(4-fluorophenyl)-1H-pyrazole-4-carboxamide]"
